From ChEMBL document CHEMBL5728225, “Modulators of P97 AAA ATPase activity” (2021)
Where “and” joins values, the source holds several entries; their conditions need not be identical. Identical values can stand only once.

assay: Biomol Green Assay: Biomol Green (Enzo) […] formed from a biochemical reaction. Because of its high sensitivity, the assay is suitable for monitoring enzyme activities at very early substrate conversions requiring very low amount of enzymes.

IC50 | SMILES
25 nM and 15 nM | Cc1cc(OCc2nnc(SC3C=CCCC3)n2-c2cccnc2)ccc1C#CCOC(=O)NN1CCN(C)CC1 (stereo not drawn)
26 nM | Cc1cc(OCc2cnc(SC3C=CCCC3)n2-c2cccnc2)ccc1C#CCOC(=O)NCCN1CCN(C(C)C)CC1 (stereo not drawn)
260 nM | Cc1cc(OCc2nnc(CC3CCCC3)n2-c2cccnc2)ccc1C#CCNC(=O)OC(C)(C)C
